The CheMixHub ionic liquid set

Experiment: xn = mol fraction of the nth substance listed
Conditions: 101 kPa

CCCCCCCCCCCCCC[n+]1ccccc1.O=C([O-])C(O)c1ccccc1 + CC(C)C[C@H](N)C(=O)O + O
electrical conductivity [S/m]
Conditions	293.15 K	298.15 K	303.15 K	308.15 K	313.15 K
x1 = 4.89e-06, x2 = 0.0009002	0.00294	0.00331	0.00369	0.0041	0.0045
x1 = 5.65e-06, x2 = 0.001799	0.00333	0.00365	0.004	0.00436	0.0047
x1 = 6.85e-06, x2 = 0	0.00248	0.00278	0.00309	0.0034	0.0037
x1 = 1.069e-05, x2 = 0.0009002	0.00459	0.0052	0.00582	0.0064	0.0071
x1 = 1.13e-05, x2 = 0.001799	0.00474	0.00522	0.00572	0.0065	0.0071
x1 = 1.424e-05, x2 = 0	0.00472	0.00529	0.00587	0.0065	0.0071
x1 = 1.54e-05, x2 = 0.0009002	0.0059	0.00666	0.0074	0.0083	0.0091
x1 = 1.695e-05, x2 = 0.001799	0.00622	0.00689	0.0075	0.0086	0.0093
x1 = 2.084e-05, x2 = 0.0009002	0.00743	0.0084	0.0093	0.0104	0.0114
x1 = 2.126e-05, x2 = 0	0.00671	0.0076	0.0084	0.0093	0.0101
x1 = 2.205e-05, x2 = 0.001799	0.0077	0.0086	0.0094	0.0106	0.0116
x1 = 2.519e-05, x2 = 0.0009002	0.0086	0.0097	0.0107	0.012	0.0132
x1 = 2.733e-05, x2 = 0.001799	0.0091	0.0102	0.0111	0.0125	0.0137
x1 = 2.811e-05, x2 = 0	0.0086	0.0097	0.0108	0.0122	0.0131
x1 = 2.972e-05, x2 = 0.0009002	0.0098	0.0111	0.0124	0.0138	0.0152
x1 = 3.28e-05, x2 = 0.001799	0.0103	0.0116	0.0129	0.0144	0.0158
x1 = 3.46e-05, x2 = 0	0.0103	0.0116	0.0129	0.0145	0.0157
x1 = 3.552e-05, x2 = 0.0009002	0.0112	0.0126	0.0141	0.0157	0.0174
x1 = 3.863e-05, x2 = 0.001799	0.0115	0.0129	0.0144	0.016	0.0177
x1 = 4.108e-05, x2 = 0	0.0117	0.0131	0.0146	0.0161	0.0179
x1 = 4.186e-05, x2 = 0.0009001	0.0124	0.014	0.0157	0.0175	0.0194
x1 = 4.41e-05, x2 = 0.001799	0.0124	0.0138	0.0155	0.0172	0.0191
x1 = 4.811e-05, x2 = 0	0.0129	0.0144	0.0161	0.0179	0.0198
x1 = 4.838e-05, x2 = 0.0009001	0.0134	0.0151	0.017	0.0189	0.0211
x1 = 5.139e-05, x2 = 0.001799	0.0135	0.0152	0.0168	0.019	0.021
x1 = 5.388e-05, x2 = 0	0.0137	0.0154	0.0172	0.0191	0.0211
x1 = 5.509e-05, x2 = 0.0009001	0.0144	0.0162	0.018	0.0203	0.0225
x1 = 5.868e-05, x2 = 0.001799	0.0146	0.0162	0.018	0.0203	0.0225
x1 = 5.982e-05, x2 = 0	0.0145	0.0163	0.0182	0.0202	0.0224
x1 = 6.179e-05, x2 = 0.0009001	0.0152	0.0172	0.0192	0.0215	0.0239
x1 = 6.559e-05, x2 = 0	0.0153	0.0172	0.0192	0.0213	0.0236
x1 = 6.56e-05, x2 = 0.001799	0.0153	0.0171	0.0192	0.0216	0.0239
x1 = 6.813e-05, x2 = 0.0009001	0.0161	0.0181	0.0203	0.0227	0.0252
x1 = 7.081e-05, x2 = 0	0.016	0.018	0.02	0.0223	0.0246
x1 = 7.216e-05, x2 = 0.001799	0.0161	0.0181	0.0203	0.0227	0.0252
x1 = 7.484e-05, x2 = 0.0009001	0.0169	0.0191	0.0214	0.0239	0.0266
x1 = 7.604e-05, x2 = 0	0.0167	0.0187	0.0209	0.0232	0.0258
x1 = 7.908e-05, x2 = 0.001799	0.0169	0.019	0.0214	0.0238	0.0265
x1 = 8.072e-05, x2 = 0	0.0173	0.0194	0.0217	0.0241	0.0266
